The values below come from US20240360151A1 (SANOFI, priority 2023, published 2024).

Some results are limits rather than exact numbers.

One assay concerns the target T1, NLRP3 inflammasome (Homo sapiens, UniProt Q96P20).
T1 construct: endogenous in cells; host or cells: THP-1 monocytic cells
In words: IL-1β secretion assay (NLRP3 IC50) in LPS-primed, nigericin-activated THP-1 cells, HTRF. It counts as cell-based. As to conditions: monocytic THP-1 cells; LPS 10 ng/mL 3 h priming, then compound + nigericin 10 μM 2 h; relative IC50, 10 concentrations, geometric mean. The method, boiled down:
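THP-1 cells primed with LPS 10 ng/mL for 3 h at 37° C., then compound (10-point 1:3 dilution, 0.1% DMSO) added with 10 μM nigericin for 2 h. Supernatant IL-1β measured by HTRF; relative IC50 from a 4-parameter logistic fit, reported as geometric mean.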

Assay [1] concerns NF-kB pathway (TNF-α secretion by THP-1 cells). In words: TNF-α secretion assay in LPS-stimulated THP-1 cells, Lumit immunoassay. It counts as cell-based, human. As to conditions: Homo sapiens, THP-1, 3 h, monocytic THP-1 cells, LPS 10 ng/mL, relative IC50, 10 concentrations, geometric mean. The method, boiled down: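 THP-1 monocytes in RPMI with 5% FBS were treated with compound, then stimulated with 10 ng/mL LPS for 3 h. Secreted TNF-α was measured in-plate by Lumit immunoassay. Relative IC50 came from 10-concentration curves fitted with a 4-parameter logistic model, reported as geometric mean.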

T1 sequence (Q96P20 whole entry): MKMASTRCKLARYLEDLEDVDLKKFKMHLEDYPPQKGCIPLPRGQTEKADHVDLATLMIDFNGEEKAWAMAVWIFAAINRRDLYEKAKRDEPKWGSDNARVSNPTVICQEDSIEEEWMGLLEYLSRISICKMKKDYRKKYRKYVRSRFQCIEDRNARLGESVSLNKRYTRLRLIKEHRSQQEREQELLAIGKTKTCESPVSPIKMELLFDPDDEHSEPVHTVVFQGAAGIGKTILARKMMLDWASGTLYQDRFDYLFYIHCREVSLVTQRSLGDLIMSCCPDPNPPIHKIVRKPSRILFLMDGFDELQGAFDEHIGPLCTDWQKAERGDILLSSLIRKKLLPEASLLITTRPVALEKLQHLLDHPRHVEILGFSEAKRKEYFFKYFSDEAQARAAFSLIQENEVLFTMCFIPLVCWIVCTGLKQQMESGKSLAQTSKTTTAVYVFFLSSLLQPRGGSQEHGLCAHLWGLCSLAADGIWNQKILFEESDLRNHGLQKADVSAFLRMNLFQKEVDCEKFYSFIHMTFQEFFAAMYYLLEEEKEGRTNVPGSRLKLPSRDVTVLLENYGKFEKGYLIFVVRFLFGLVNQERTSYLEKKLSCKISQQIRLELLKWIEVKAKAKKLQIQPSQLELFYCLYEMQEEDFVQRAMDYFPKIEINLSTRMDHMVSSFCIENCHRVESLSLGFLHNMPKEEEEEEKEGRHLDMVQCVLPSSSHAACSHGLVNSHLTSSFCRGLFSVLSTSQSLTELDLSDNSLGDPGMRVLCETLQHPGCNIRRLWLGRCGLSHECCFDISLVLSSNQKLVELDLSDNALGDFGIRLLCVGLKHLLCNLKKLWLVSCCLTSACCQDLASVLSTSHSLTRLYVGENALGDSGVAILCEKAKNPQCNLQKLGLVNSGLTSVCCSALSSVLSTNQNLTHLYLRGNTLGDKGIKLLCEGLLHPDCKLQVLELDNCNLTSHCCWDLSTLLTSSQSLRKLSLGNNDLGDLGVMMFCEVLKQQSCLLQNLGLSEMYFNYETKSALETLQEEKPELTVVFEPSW

For `Cc1cc(C)c(-c2ccc(N3C[C@H](CO)CC3=O)nn2)c(O)c1` (single isomer, unassigned) [Example 137], the 50% inhibitory concentration (IC50) at NLRP3 inflammasome was 0.411 µM; in assay [1], greater than 10 µM.
Consider `CC(=O)N1CC[C@@H]2OCCN(c3ccc(-c4c(C)cc(C)cc4O)nn3)[C@@H]2C1` (racemic) [Example 213, 1-[rac-(4aR,8aS)-4-[6-(2-hydroxy-4,6-dimethyl-phenyl)pyridazin-3-yl]-3,4a,5,7,8,8a-hexahydro-2H-pyrido[4,3-b][1,4]oxazin-6-yl]ethanone], for which the IC50 at NLRP3 inflammasome is 0.115 µM; in assay [1] it was greater than 10 µM.
Take `COC[C@H]1CCCN1c1ccc(-c2c(C)cc(C(F)(F)F)cc2O)nn1` [Example 14, 2-[6-[(2R)-2-(methoxymethyl)pyrrolidin-1-yl]pyridazin-3-yl]-3-methyl-5-(trifluoromethyl)phenol]: the values for the concentration for half-maximal inhibition (IC50) (on NLRP3 inflammasome; in assay [1]) were 0.605 µM and greater than 10 µM, respectively.
On to `CN1CC[C@H]2OCCN(c3cc(C(F)F)c(-c4ccc(C(F)(F)F)cc4O)nn3)[C@H]2C1` [Example 298, 2-[6-[(4aS,8aR)-6-methyl-3,4a,5,7,8,8a-hexahydro-2H-pyrido[4,3-b][1,4]oxazin-4-yl]-4-(difluoromethyl)pyridazin-3-yl]-5-(trifluoromethyl)phenol], for which the figures for the IC50 (on NLRP3 inflammasome; in assay [1]) were 0.003 µM and greater than 10 µM, respectively.
With `Cc1cc(O)c(-c2ccc(N3CCO[C@H](CO)C3)nn2)c(Cl)c1` [Example 172, 3-chloro-2-[6-[(2S)-2-(hydroxymethyl)morpholin-4-yl]pyridazin-3-yl]-5-methyl-phenol], the IC50 was 0.036 µM at NLRP3 inflammasome and greater than 10 µM in assay [1].
In the case of `Cc1cc(N2CCO[C@H](CO)C2)nnc1-c1c(C)cc(Cl)cc1O` [Example 149, 5-chloro-2-[6-[(2S)-2-(hydroxymethyl)morpholin-4-yl]-4-methyl-pyridazin-3-yl]-3-methyl-phenol], the IC50 at NLRP3 inflammasome is 0.052 µM; in assay [1], greater than 10 µM.
Turning to `Cc1cc(C(F)(F)F)cc(O)c1-c1ccc(N2CCO[C@@H](CNC(=O)C(C)C)C2)nn1` [Example 276, N-[[(2S)-4-[6-[2-hydroxy-6-methyl-4-(trifluoromethyl)phenyl]pyridazin-3-yl]morpholin-2-yl]methyl]-2-methylpropanamide], the IC50 at NLRP3 inflammasome was 0.515 µM; in assay [1], greater than 10 µM.
As to `Cc1cc(Cl)cc(O)c1-c1cc(C#N)c(N2CCO[C@H](CO)C2)nn1` [Example 163, 6-(4-chloro-2-hydroxy-6-methyl-phenyl)-3-[(2S)-2-(hydroxymethyl)morpholin-4-yl]pyridazine-4-carbonitrile], the IC50 was 0.007 µM on NLRP3 inflammasome and greater than 10 µM in assay [1].
On to `OC[C@@H]1CN(c2nnc(-c3ccc(Cl)cc3O)c3c2CCC3)CCO1` [Example 78, 5-chloro-2-[4-[(2S)-2-(hydroxymethyl)morpholin-4-yl]-6,7-dihydro-5H-cyclopenta[d]pyridazin-1-yl]phenol], for which the IC50 on NLRP3 inflammasome is 0.436 µM; in assay [1], greater than 10 µM.
Turning to `CN1CC2(CCN(c3ccc(-c4c(O)cc(Cl)cc4Cl)nn3)CC2)C1` [Example 55, 3,5-dichloro-2-[6-(2-methyl-2,7-diazaspiro[3.5]nonan-7-yl)pyridazin-3-yl]phenol], the results for the IC50 (at NLRP3 inflammasome; in assay [1]) were 0.176 µM and greater than 10 µM, respectively.
As for `CN1CC[C@H]2OCCN(c3cc(C(F)F)c(-c4ccc(Cl)cc4O)nn3)[C@H]2C1` [Example 350, 2-[6-[(4aS,8aR)-6-methyl-3,4a,5,7,8,8a-hexahydro-2H-pyrido[4,3-b][1,4]oxazin-4-yl]-4-(difluoromethyl)pyridazin-3-yl]-5-chloro-phenol], the values for the IC50 (on NLRP3 inflammasome; in assay [1]) were 0.001 µM and greater than 10 µM, respectively.
In the case of `Cc1cc(C)c(-c2ccc(N3CC[C@@H](CO)C3)nn2)c(O)c1` [Example 65, 2-[6-[(3R)-3-(hydroxymethyl)pyrrolidin-1-yl]pyridazin-3-yl]-3,5-dimethyl-phenol], the IC50 at NLRP3 inflammasome is 0.151 µM; in assay [1], greater than 10 µM.
